Data set [1] in a line: Moisture sorption analysis (absorption and desorption), VTI microbalance, as a measure of physical stability. It is filed as physicochemical. The conditions noted are these: 25° C. Here is the method:
Determination of Stability […] The moisture sorption analysis, absorption and desorption, respective was performed using a VTI microbalance, Model […] (VTI Corporation, USA) linked to an IBM PC. The relative humidity (RH) within the balance was monitored using a dew point analyser. […] The desorption profile was also obtained.

For data set [2] the following is noted: water firmly bound in crystal lattice.
For data set [3] the following is noted: thermogravimetric measurement.
The conditions of data set [4]: background statement on the salt disclosed in WO 95/11891; cited from earlier work.

A value given as a limit tells only on which side of the number the result lay.

As to `NC(=O)c1ccc(F)c2c1C[C@@H](N(C1CCC1)C1CCC1)CO2.O.O=C(O)C(O)C(O)C(=O)O` [Example 2, (R)-3-N,N-dicyclobutylamino-8-fluoro-3,4-dihydro-2H-1-benzopyran-5-carboxamide Hydrogen (2R,3R)-Tartrate Monohydrate], the “RH at which significant uptake of moisture was recorded” value in data set [1] (RH steps of 5%) is on record as no less than 60%. For the same compound, the moisture absorbed in data set [1] (RH of 90%) is on record as 2.5 % (w/w). The desorption profile entry in data set [1] (desorption after exposure up to 90% RH) is listed as “the moisture uptake is reversible”. In addition, in data set [2], the “heating temperature up to which crystal water is not released” value was “up to 70 °C”. Also, the “initial weight loss (thermogravimetric)” value in data set [3] amounted to 4.104 % w/w.
In the case of `Cl.NC(=O)c1ccc(F)c2c1C[C@@H](N(C1CCC1)C1CCC1)CO2` [HCl salt, (R)-3-N,N-dicyclobutylamino-8-fluoro-3,4-dihydro-2H-1-benzopyran-5-carboxamide, reference compound], the “hygroscopicity / physical stability during manufacturing and storage” value in data set [4] was “hygroscopic and thus physically unstable”. In addition, in data set [1] (85% relative humidity), the “behaviour at high relative humidity” value was “exhibits deliquescence” and the moisture taken up entry is “approximately 20 % w/w”.

The values are drawn from patent US6858645B2, “Tartrate salts of (R) -3-N,N- dicyclobutylamino-8-fluoro-3,4-dihydro-2H-1- benzopyran-5-carboxamide” (AstraZeneca AB, priority 1997, dated 2005).
